From patent publication US20100056391A1, “INTEGRATED SCREENING ASSAYS AND METHODS OF USE” (Trustees of Princeton University, priority 2006, published 2010)

Tested on: Dictyostelium cells
Assay: Development of Dictyostelium cells in the presence of AFC (time-lapse imaging, FIG. 7)
Type: cell-based
Source text: Accordingly, some embodiments of the present invention are directed to assays testing the effects of AFC on Dictyostelium cells.

Which results are given for CC(=O)N[C@@H](CSC/C=C(\C)CC/C=C(\C)CCC=C(C)C)C(=O)O [AFC, N-acetyl-farnsyl cysteine]?
ability of the cells to form fruiting bodies (Dictyostelium cells treated with AFC): inhibited; mechanism by which individual cells aggregate into multicellular clusters (head-to-tail streaming while migrating) (compared with untreated cells, which line up head-to-tail and form streams, FIG. 7, 6.5, 8.5 and 9.25 hours): migrate, but do not line up head-to-tail
